Assays:
[1] = system: carcinomas of the colon and rectum; conditions: single agent; cited from earlier work
[2] = metabolized primarily in the liver; cited from earlier work
MiaPaCa-2 cells = experiment: Growth curves of MiaPaCa-2 cells, cell proliferation (MTT) assay, absorbency; conditions: for Significance from 5-FU 10^−6 M Values: 5-FU 10^−5 M alone or with OGF; for Significance from 5-FU 10^−5 M Values: 5-FU 10^−6 M alone or with OGF (b: 5-FU 10^−5 M more inhibitory); for decrease in cell number from controls: MiaPaCa-2
Excerpt: Cells were counted using a standard MTT assay. In general, each data point represents the average absorbency taken from 10 wells/treatment; error bars represent the S.E.M.

## O=c1[nH]cc(F)c(=O)[nH]1 [5-FU, 5-fluorouracil]
[1]
  mean response rate: less than 20%
[2]
  drug appearing unchanged in urine: 10%
MiaPaCa-2 cells; 48 h
  Significance from 5-FU 10^−6 M Values: ###^b (Significantly different from 5-FU 10^−6 M at p < 0.001 (###))
  Significance from 5-FU 10^−5 M Values: ^^^^b (Significantly different from 5-FU 10^−5 M at p < 0.001)
MiaPaCa-2 cells; 72 h
  Significance from 5-FU 10^−6 M Values: ###^b (Significantly different from 5-FU 10^−6 M at p < 0.001 (###))
  Significance from 5-FU 10^−5 M Values: ^^^^b (Significantly different from 5-FU 10^−5 M at p < 0.001)
MiaPaCa-2 cells; 96 h
  Significance from 5-FU 10^−6 M Values: ###^b (Significantly different from 5-FU 10^−6 M at p < 0.001 (###))
  Significance from 5-FU 10^−5 M Values: ^^^^b (Significantly different from 5-FU 10^−5 M at p < 0.001)
MiaPaCa-2 cells; 48 h, 5-FU 10^-5 M and/or OGF 10^−6 M
  decrease in cell number from controls: 26.0%
MiaPaCa-2 cells; 48 h, 5-FU 10^-6 M alone or with OGF 10^−6 M
  decrease in cell number from controls: 12.7%
MiaPaCa-2 cells; 72 h, 5-FU 10^-5 M and/or OGF 10^−6 M
  decrease in cell number from controls: 30.1%
MiaPaCa-2 cells; 72 h, 5-FU 10^-6 M alone or with OGF 10^−6 M
  decrease in cell number from controls: 10.8%
MiaPaCa-2 cells; 96 h, 5-FU 10^-5 M and/or OGF 10^−6 M
  decrease in cell number from controls: 36.4%
MiaPaCa-2 cells; 96 h, 5-FU 10^-6 M alone or with OGF 10^−6 M
  decrease in cell number from controls: 15.2%

— patent publication US8003630B2, “Combinatorial therapies for the treatment of neoplasias using the opioid growth factor receptor” (The Penn State Research Foundation, priority 2004, dated 2011)
